#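 Five concentrations, 48 hours, 96-well plates. TGI denotes the concentration required for complete inhibition of growth.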
# Experiments:
# Test in all cases: NCI-60 cell line screen, 48 h
# RPMI-8226 leukemia = test system: RPMI-8226 leukemia
# KM12 colon = test system: KM12 colon
# OVCAR-3 ovarian = test system: OVCAR-3 ovarian
# NCI-H226 lung = test system: NCI-H226 lung
# HL-60(TB) leukemia = test system: HL-60(TB) leukemia
# UACC-62 melanoma = test system: UACC-62 melanoma
# KM20L2 colon = test system: KM20L2 colon
# RXF 393 renal = test system: RXF 393 renal
# IGROV1 ovarian = test system: IGROV1 ovarian
# SF-539 CNS = test system: SF-539 CNS
# MOLT-4 leukemia = test system: MOLT-4 leukemia
# DLD-1 colon = test system: DLD-1 colon
# OVCAR-4 ovarian = test system: OVCAR-4 ovarian
# OVCAR-8 ovarian = test system: OVCAR-8 ovarian
# HT29 colon = test system: HT29 colon
# NCI-H23 lung = test system: NCI-H23 lung
# 786-0 renal = test system: 786-0 renal
# SW-620 colon = test system: SW-620 colon
# ACHN renal = test system: ACHN renal
# SR leukemia = test system: SR leukemia
# DMS 273 small cell lung = test system: DMS 273 small cell lung
# HCT-15 colon = test system: HCT-15 colon
# MALME-3M melanoma = test system: MALME-3M melanoma
# HOP-92 NSCLC = test system: HOP-92 NSCLC
# HCC-2998 colon = test system: HCC-2998 colon
# NCI-H522 lung = test system: NCI-H522 lung
# UO-31 renal = test system: UO-31 renal
# UACC-257 melanoma = test system: UACC-257 melanoma
# M19-MEL melanoma = test system: M19-MEL melanoma
# CAKI-1 renal = test system: CAKI-1 renal
# TK-10 renal = test system: TK-10 renal
# SK-MEL-28 melanoma = test system: SK-MEL-28 melanoma
# CCRF-CEM leukemia = test system: CCRF-CEM leukemia
# K-562 leukemia = test system: K-562 leukemia
# XF 498 CNS = test system: XF 498 CNS
# LOX IMVI melanoma = test system: LOX IMVI melanoma
# NCI-H460 lung = test system: NCI-H460 lung
# U251 CNS = test system: U251 CNS
# SF-268 CNS = test system: SF-268 CNS
# SNB-75 CNS = test system: SNB-75 CNS
# SK-MEL-5 melanoma = test system: SK-MEL-5 melanoma
# LXFL 529 NSCLC = test system: LXFL 529 NSCLC
# SNB-19 CNS = test system: SNB-19 CNS
# OVCAR-5 ovarian = test system: OVCAR-5 ovarian
# M14 melanoma = test system: M14 melanoma
# HOP-62 NSCLC = test system: HOP-62 NSCLC
# COLO 205 colon = test system: COLO 205 colon
# RXF-631 renal = test system: RXF-631 renal
# A549 NSCLC = test system: A549 NSCLC
# SNB-78 CNS = test system: SNB-78 CNS
# SN12C renal = test system: SN12C renal
# HCT-116 colon = test system: HCT-116 colon
# SF-295 CNS = test system: SF-295 CNS
# SK-OV-3 ovarian = test system: SK-OV-3 ovarian
# SK-MEL-2 melanoma = test system: SK-MEL-2 melanoma
# A498 renal = test system: A498 renal
# HOP-18 NSCLC = test system: HOP-18 NSCLC
# DMS 114 small cell lung = test system: DMS 114 small cell lung
# EKVX NSCLC = test system: EKVX NSCLC
smiles,measurement,setting,value
CC(=O)NNc1nc(C)c(C(/C=C/c2ccc(Cl)cc2)=N\N=C(N)N)s1,TGI,RPMI-8226 leukemia,> 100 µM
same,TGI,KM12 colon,> 100 µM
same,TGI,OVCAR-3 ovarian,> 100 µM
same,TGI,NCI-H226 lung,> 100 µM
same,TGI,HL-60(TB) leukemia,> 100 µM
same,TGI,UACC-62 melanoma,> 100 µM
same,TGI,KM20L2 colon,> 100 µM
same,TGI,RXF 393 renal,> 100 µM
same,TGI,IGROV1 ovarian,> 100 µM
same,TGI,SF-539 CNS,> 100 µM
same,TGI,MOLT-4 leukemia,> 100 µM
same,TGI,DLD-1 colon,> 100 µM
same,TGI,OVCAR-4 ovarian,> 100 µM
same,TGI,OVCAR-8 ovarian,> 100 µM
same,TGI,HT29 colon,> 100 µM
same,TGI,NCI-H23 lung,> 100 µM
same,TGI,786-0 renal,> 100 µM
same,TGI,SW-620 colon,> 100 µM
same,TGI,ACHN renal,> 100 µM
same,TGI,SR leukemia,> 100 µM
same,TGI,DMS 273 small cell lung,> 100 µM
same,TGI,HCT-15 colon,> 100 µM
same,TGI,MALME-3M melanoma,> 100 µM
same,TGI,HOP-92 NSCLC,> 100 µM
same,TGI,HCC-2998 colon,> 100 µM
same,TGI,NCI-H522 lung,> 100 µM
same,TGI,UO-31 renal,> 100 µM
same,TGI,UACC-257 melanoma,> 100 µM
same,TGI,M19-MEL melanoma,> 100 µM
same,TGI,CAKI-1 renal,> 100 µM
same,TGI,TK-10 renal,> 100 µM
same,TGI,SK-MEL-28 melanoma,> 100 µM
same,TGI,CCRF-CEM leukemia,> 100 µM
same,TGI,K-562 leukemia,> 100 µM
same,TGI,XF 498 CNS,> 100 µM
same,TGI,LOX IMVI melanoma,> 100 µM
same,TGI,NCI-H460 lung,> 100 µM
same,TGI,U251 CNS,> 100 µM
same,TGI,SF-268 CNS,> 100 µM
same,TGI,SNB-75 CNS,> 100 µM
same,TGI,SK-MEL-5 melanoma,> 100 µM
same,TGI,LXFL 529 NSCLC,> 100 µM
same,TGI,SNB-19 CNS,> 100 µM
same,TGI,OVCAR-5 ovarian,> 100 µM
same,TGI,M14 melanoma,> 100 µM
same,TGI,HOP-62 NSCLC,> 100 µM
same,TGI,COLO 205 colon,> 100 µM
same,TGI,RXF-631 renal,> 100 µM
same,TGI,A549 NSCLC,> 100 µM
same,TGI,SNB-78 CNS,> 100 µM
same,TGI,SN12C renal,> 100 µM
same,TGI,HCT-116 colon,> 100 µM
same,TGI,SF-295 CNS,> 100 µM
same,TGI,SK-OV-3 ovarian,> 100 µM
Cn1cnc([N+](=O)[O-])c1Sc1nc2ccccc2o1,TGI,RPMI-8226 leukemia,22.5 µM
same,TGI,KM12 colon,20.5 µM
same,TGI,OVCAR-3 ovarian,14.7 µM
same,TGI,NCI-H226 lung,30.9 µM
same,TGI,HL-60(TB) leukemia,3.79 µM
same,TGI,UACC-62 melanoma,25.5 µM
same,TGI,KM20L2 colon,10.1 µM
same,TGI,RXF 393 renal,22.1 µM
same,TGI,IGROV1 ovarian,27.7 µM
same,TGI,SF-539 CNS,24.1 µM
same,TGI,MOLT-4 leukemia,8.99 µM
same,TGI,DLD-1 colon,16.6 µM
same,TGI,OVCAR-4 ovarian,15 µM
same,TGI,OVCAR-8 ovarian,10 µM
same,TGI,HT29 colon,12.9 µM
same,TGI,NCI-H23 lung,17.1 µM
same,TGI,786-0 renal,29.3 µM
same,TGI,SW-620 colon,14.3 µM
same,TGI,ACHN renal,24.9 µM
same,TGI,SR leukemia,8.14 µM
same,TGI,SK-MEL-2 melanoma,52.9 µM
same,TGI,DMS 273 small cell lung,9.93 µM
same,TGI,HCT-15 colon,11.2 µM
same,TGI,MALME-3M melanoma,16.6 µM
same,TGI,HOP-92 NSCLC,12.4 µM
same,TGI,HCC-2998 colon,24.9 µM
same,TGI,NCI-H522 lung,4.42 µM
same,TGI,UO-31 renal,24.8 µM
same,TGI,UACC-257 melanoma,19.8 µM
same,TGI,M19-MEL melanoma,23.7 µM
same,TGI,CAKI-1 renal,6.19 µM
same,TGI,A498 renal,45.2 µM
same,TGI,HOP-18 NSCLC,1.36 µM
same,TGI,TK-10 renal,22.9 µM
same,TGI,SK-MEL-28 melanoma,18.6 µM
same,TGI,CCRF-CEM leukemia,12.8 µM
same,TGI,K-562 leukemia,11.3 µM
same,TGI,XF 498 CNS,19.7 µM
same,TGI,DMS 114 small cell lung,4.89 µM
same,TGI,LOX IMVI melanoma,26.1 µM
same,TGI,NCI-H460 lung,> 71.6 µM
same,TGI,EKVX NSCLC,15.3 µM
same,TGI,U251 CNS,26.2 µM
same,TGI,SF-268 CNS,14.4 µM
same,TGI,SNB-75 CNS,32.9 µM
same,TGI,SK-MEL-5 melanoma,26.5 µM
same,TGI,LXFL 529 NSCLC,12.9 µM
same,TGI,SNB-19 CNS,30.9 µM
same,TGI,OVCAR-5 ovarian,19.4 µM
same,TGI,M14 melanoma,24.4 µM
same,TGI,HOP-62 NSCLC,> 94.4 µM
same,TGI,COLO 205 colon,3.4 µM
same,TGI,RXF-631 renal,15.1 µM
same,TGI,A549 NSCLC,75.4 µM
same,TGI,SNB-78 CNS,32.3 µM
same,TGI,SN12C renal,18.5 µM
same,TGI,HCT-116 colon,11.6 µM
same,TGI,SF-295 CNS,74.9 µM
same,TGI,SK-OV-3 ovarian,> 81.2 µM
N#CC(C(=O)CCC(=O)Nc1ccc(Cl)cc1)c1ccc(Cl)cc1 (stereo not drawn),TGI,RPMI-8226 leukemia,> 100 µM
same,TGI,KM12 colon,> 100 µM
same,TGI,OVCAR-3 ovarian,> 100 µM
same,TGI,NCI-H226 lung,> 100 µM
same,TGI,HL-60(TB) leukemia,> 100 µM
same,TGI,UACC-62 melanoma,> 100 µM
same,TGI,KM20L2 colon,> 100 µM
same,TGI,IGROV1 ovarian,> 100 µM
same,TGI,SF-539 CNS,> 100 µM
same,TGI,MOLT-4 leukemia,> 100 µM
same,TGI,DLD-1 colon,> 100 µM
same,TGI,OVCAR-4 ovarian,> 100 µM
same,TGI,OVCAR-8 ovarian,> 100 µM
same,TGI,HT29 colon,> 100 µM
same,TGI,NCI-H23 lung,> 100 µM
same,TGI,786-0 renal,> 100 µM
same,TGI,SW-620 colon,> 100 µM
same,TGI,ACHN renal,> 100 µM
same,TGI,SK-MEL-2 melanoma,> 100 µM
same,TGI,DMS 273 small cell lung,> 100 µM
same,TGI,HCT-15 colon,> 100 µM
same,TGI,MALME-3M melanoma,> 100 µM
same,TGI,HOP-92 NSCLC,> 100 µM
same,TGI,HCC-2998 colon,> 100 µM
same,TGI,NCI-H522 lung,> 100 µM
same,TGI,UO-31 renal,> 100 µM
same,TGI,UACC-257 melanoma,> 100 µM
same,TGI,M19-MEL melanoma,> 100 µM
same,TGI,CAKI-1 renal,> 100 µM
same,TGI,A498 renal,> 100 µM
same,TGI,HOP-18 NSCLC,> 100 µM
same,TGI,TK-10 renal,> 100 µM
same,TGI,CCRF-CEM leukemia,> 100 µM
same,TGI,K-562 leukemia,> 100 µM
same,TGI,XF 498 CNS,> 100 µM
same,TGI,DMS 114 small cell lung,> 100 µM
same,TGI,LOX IMVI melanoma,> 100 µM
same,TGI,NCI-H460 lung,> 100 µM
same,TGI,EKVX NSCLC,> 100 µM
same,TGI,U251 CNS,> 100 µM
same,TGI,SF-268 CNS,> 100 µM
same,TGI,SK-MEL-5 melanoma,> 100 µM
same,TGI,LXFL 529 NSCLC,> 100 µM
same,TGI,SNB-19 CNS,> 100 µM
same,TGI,OVCAR-5 ovarian,> 100 µM
same,TGI,M14 melanoma,> 100 µM
same,TGI,HOP-62 NSCLC,> 100 µM
same,TGI,COLO 205 colon,> 100 µM
same,TGI,RXF-631 renal,> 100 µM
same,TGI,A549 NSCLC,> 100 µM
same,TGI,SNB-78 CNS,> 100 µM
same,TGI,SN12C renal,> 100 µM
same,TGI,HCT-116 colon,> 100 µM
same,TGI,SF-295 CNS,> 100 µM
same,TGI,SK-OV-3 ovarian,> 100 µM
